According to patent US20210139902A1, “RNAI TARGET GENE THAT IS HIGHLY LETHAL TO APHIDS AND USE THEREOF” (CAS Center For Excellence in Molecular Plant Sciences, priority 2018, published 2021):

Test system: green peach aphid
Assay: Field test of green peach aphid: dsRNA spray compared with imidacloprid
Assay type: in vivo, Myzus persicae
Settings: dsRNA 300 ng/μl in water, 300 μl per plant, imidacloprid 10,000 times solution
Description: Control effect (%)=(1−CK0×PT1/CK1×PT0)×100
wherein PT0: the number of insects before drug administration in the treatment area; PT1: the number of insects after drug administration in the treatment area; • CK0: the number of insects before drug administration in the control area; CK1: the number of insects after drug administration in the control area.
the dropping rate of insect population (%)=[(number of insects before drug administration−number of insects after drug administration)/number of insects before drug administration]×100
1. Radish seedlings of 12-15 days, inoculated with 100 insects, stabilized for 1 day, sprayed with dsRNA the next day.
2. The concentration of dsRNA used for spraying was 300 ng/μl. The synthesized dsRNA was dissolved in water and sprayed 300 μl per plant.
3. The concentration of imidacloprid was 10,000 times solution (Germany Bayer Emerald 70% imidacloprid 3 g, water dispersible granules), sprayed 300 μl per plant.
4. The experiment method: spray treatment, 4 replicates for each treatment.

## O=[N+]([O-])NC1=NCCN1Cc1ccc(Cl)nc1 [Imidacloprid, imidacloprid]
1 d
  Field test of green peach aphid: Control effect, 1 d: 70.96 ± 4.25 Cc %
1 d, radish seedlings, 100 insects
  Field test of green peach aphid: the dropping rate of insect population, 1 d: 37.33 ± 9.65 Bb %
3 d
  Field test of green peach aphid: Control effect, 3 d: 93.78 ± 3.14 Cb %
3 d, radish seedlings, 100 insects
  Field test of green peach aphid: the dropping rate of insect population, 3 d: 75.83 ± 15.25 Bb %
5 d
  Field test of green peach aphid: Control effect, 5 d: 97.37 ± 1.88 Bb %
5 d, radish seedlings, 100 insects
  Field test of green peach aphid: the dropping rate of insect population, 5 d: 84.35 ± 9.60 Bb %
